Source: patent publication US20230157975A1, “TREATMENT OF PULMONARY FIBROSIS” (REGENALL LIMITED, priority 2020, published 2023)

Legend:
Tendon injury = assay: Tendon injury, recovery following treatment with Vitamin A (Example 3); format: in vivo; conditions: Horse subject 1 (polo pony); oral 750,000 IU twice daily, at least 4 weeks; started approximately 20 days after injury
Text: [table] Treatment with Vitamin A was initiated approximately 20 days after the initial injury. Retinyl palmitate (93.8% Retinol Equivalent) Oral 750,000 IU Twice daily (1,500,000 IU per day) Continuing (at least 4 weeks)

[1] = test system: bleomycin-induced lung fibrosis; conditions: rats; by downregulating the TGF-β1/Smad3 signalling pathway; cited from earlier work

SMILES | Functional recovery (Tendon injury) | Size of the lesion by ultrasonography (Tendon injury) | Effect on bleomycin-induced lung fibrosis [1]
CCCCCCCCCCCCCCCC(=O)OC/C=C(C)/C=C/C=C(C)/C=C/C1=C(C)CCCC1(C)C [Vitamin A, Retinyl palmitate] | good | good reduction in the size of the lesion | –
CC1=C(/C=C/C(C)=C/C=C/C(C)=C/C(=O)O)C(C)(C)CCC1 [RA] | – | – | ameliorates bleomycin-induced lung fibrosis
